Experimental data reported in patent US11931459B2, “Treatment of pain in pediatric patients by administration of sustained-release liposomal anesthetic compositions” (Pacira Pharmaceuticals, Inc., priority 2021, dated 2024).
Counter-ions that a name gives are not always drawn.

Legend:
[1] = Bupivacaine PK after local infiltration, noncompartmental analysis (PLAY phase 3 trial, NCT03682302); parameters: species or system human; conditions: in vivo; for AUC(0-inf): AUC0-∞
Method: • Methods: A multicenter, open-label, phase 3, randomized trial (PLAY; NCT03682302) was conducted, with primary and secondary objectives evaluating the pharmacokinetics and safety, respectively, of multivesicular liposomal bupivacaine (EXPAREL®) in pediatric patients (age group 1: 12 to <17 years; age group 2: 6 to <12 years). The hypothesis was that the pharmacokinetics and safety profiles would support the safety of EXPAREL® (also referred to herein as “multivesicular liposomal bupivacaine” or “liposomal bupivacaine”) in pediatric patients. Age group 1 received 4 mg/kg liposomal bupivacaine or 2 mg/kg bupivacaine hydrochloride (HCl) at the end of spine surgery; all patients in age group 2 received liposomal bupivacaine (4 mg/kg) at the end of spine or cardiac surgery. […] In age group 2, 100% and 31% of patients undergoing spine (n=5) and cardiac (n=9) surgery experienced TEAEs, respectively. TEAEs were generally mild or moderate, with no discontinuations due to TEAEs or deaths. […] TEAEs were mild to moderate, supporting the safety of liposomal bupivacaine in pediatric patients undergoing spine or cardiac surgery. Study Design
This study was performed in 2 parts. Part 1 evaluated PK and safety of liposomal bupivacaine. Part 2 followed part 1 and further evaluated the safety of liposomal bupivacaine. For both parts of the study, pediatric patients aged 12 to <17 years (age group 1) were analyzed separately from patients aged 6 to <12 years (age group 2), per FDA guidance for safety studies in pediatric patients.^25
In age group 1, eligible pediatric patients aged 12 to <17 years undergoing spine surgery were randomized 1:1 to receive a single dose of either liposomal bupivacaine (4 mg/kg up to 266 mg) diluted with normal saline, or bupivacaine HCl (2 mg/kg up to 175 mg) via local infiltration at the end of surgery. Randomization was performed with a centralized randomization system using a unique subject identifier and unique random code identifier. In age group 2, all eligible pediatric patients aged 6 to <12 years of age undergoing either spine or cardiac surgery received liposomal bupivacaine (4 mg/kg up to 266 mg) via local infiltration at the end of surgery. Dosing for both age groups was weight based. Guidelines and training were shared with the participating surgeons to ensure reliability in infiltration techniques.
Across age groups and surgical procedures, surgeons administered liposomal bupivacaine or bupivacaine HCl via local infiltration prior to wound closure, with liposomal bupivacaine and bupivacaine HCl administered in small increments into the deep and superficial layers along the entire length of the incision site to ensure uniform drug distribution. Use of intraoperative opioids, acetaminophen, or other nonsteroidal anti-inflammatory drugs as well as postsurgical pain medication in cases of insufficient analgesia during and after surgery was permitted in accordance with the standard of care at each site. Use of local anesthetics within 96 hours after administration of liposomal bupivacaine was prohibited.
The primary objective was to analyze PK of liposomal bupivacaine, including area under the plasma concentration-time curve (AUC), maximum plasma concentration (Cmax), time to Cmax (Tmax), apparent elimination half-life (t1/2), apparent clearance (CL/F), and apparent volume of distribution (Vd/F). To assess plasma concentration of bupivacaine, 8 blood samples were collected up to 42-60 hours after spine surgery and up to 64-72 hours after cardiac surgery in each patient. For both procedures, the first 4 samples were collected ˜15, ˜30, ˜45, and 60-75 minutes after liposomal bupivacaine administration. The last 4 samples were collected in time windows rather than precise time points. For spine surgery, sample windows were 2-3,10-18, 24-36, and 42-60 hours after receiving liposomal bupivacaine or bupivacaine HCl. […]

[2] = Safety: treatment-emergent adverse events up to 30 days after surgery (PLAY trial); format: in vivo; conditions: age group 1 (12 to <17 years), spine surgery; liposomal bupivacaine 4 mg/kg or bupivacaine HCl 2 mg/kg
Method: • Methods: A multicenter, open-label, phase 3, randomized trial (PLAY; NCT03682302) was conducted, with primary and secondary objectives evaluating the pharmacokinetics and safety, respectively, of multivesicular liposomal bupivacaine (EXPAREL®) in pediatric patients (age group 1: 12 to <17 years; age group 2: 6 to <12 years). The hypothesis was that the pharmacokinetics and safety profiles would support the safety of EXPAREL® (also referred to herein as “multivesicular liposomal bupivacaine” or “liposomal bupivacaine”) in pediatric patients. Age group 1 received 4 mg/kg liposomal bupivacaine or 2 mg/kg bupivacaine hydrochloride (HCl) at the end of spine surgery; all patients in age group 2 received liposomal bupivacaine (4 mg/kg) at the end of spine or cardiac surgery. […]
The sample size was determined on the basis of the number of patients needed to characterize the PK profile of liposomal bupivacaine in pediatric patients per FDA requirements. […] Descriptive statistics (number, mean, standard deviation [SD], median, minimum, maximum) were calculated for continuous data; tabulations (number and percentage) were calculated for categorial data. PK analysis included pediatric patients who underwent surgery, received treatment, and provided at least 1 blood sample for quantifiable plasma concentration measurement. PK measures were assessed by noncompartmental analysis. […]

[3] = Bupivacaine PK, nonlinear mixed-effect modeling (population PK method); format: in vivo, human
Method: The sample size was determined on the basis of the number of patients needed to characterize the PK profile of liposomal bupivacaine in pediatric patients per FDA requirements. Authorized staff or a designee obtained the randomization assignment once eligible patients were at the clinic site for surgery. Descriptive statistics (number, mean, standard deviation [SD], median, minimum, maximum) were calculated for continuous data; tabulations (number and percentage) were calculated for categorial data. PK analysis included pediatric patients who underwent surgery, received treatment, and provided at least 1 blood sample for quantifiable plasma concentration measurement. PK measures were assessed by noncompartmental analysis. A separate PK analysis was conducted using nonlinear mixed-effect modeling (population PK method) with the spine surgery cohorts combined. The safety analysis included pediatric patients who underwent surgery and received treatment. The incidence of patients reporting TEAEs was tabulated by the number and percentage of patients reporting the TEAE. All analyses and tabulations were performed using SAS, version 9.4; PK descriptive statistics were performed using Sigmastat and Microsoft Excel.
Across age groups, trends in PK parameters between liposomal bupivacaine and bupivacaine HCl using the population PK model were consistent with those observed with noncompartmental analysis (Table 4). The PK of bupivacaine in both age groups and surgery cohorts were adequately described by a linear 2-compartment PK model with fast and slow absorption routes for liposomal bupivacaine. For each treatment (liposomal bupivacaine or bupivacaine HCl), the Cmax in 12-year-old patients was predicted to be similar to that in 17-year-old patients in pediatric patients undergoing spine surgery.

## CCCCN1CCCCC1C(=O)Nc1c(C)cccc1C (stereo not drawn) [bupivacaine HCl, bupivacaine hydrochloride]
[1]; human
  Tmax: ~1 h
[1]; human, 2 mg/kg
  Tmax: 0.9 h
[1]; human, 2 mg/kg, Geometric mean
  AUC(0-inf): 5060 ng·h/mL
  Vd/F: 201 L
[1]; human, 2 mg/kg, Mean
  AUC(0-inf): 5710 ng·h/mL
  Vd/F: 227 L
[1]; human, 2 mg/kg, t1/2, Geometric mean
  half-life: 7.4 h
[1]; human, 2 mg/kg, t1/2, Mean
  half-life: 8.4 h
[1]; human, age group 1 (12 to <17 years), spine surgery, local infiltration, liposomal bupivacaine 4 mg/kg (n = 15) or bupivacaine HCl 2 mg/kg (n = 15), read-out: Cmax, Geometric mean
  Cmax: 488 ng/mL
[1]
  CL/F, Mean: 20.5 L/h
  CL/F, geometric mean: 18.9 L/h
[2]
  discontinuations due to TEAEs or on-study deaths: no discontinuations due to TEAEs or on-study deaths
[3]; human, plasma, population PK method, spine surgery: liposomal bupivacaine 4 mg/kg (6 to <17 y, n = 18) or bupivacaine HCl 2 mg/kg (12 to <17 y, n = 15), read-out: AUC0-∞, geometric mean
  AUC(0-inf): 6400 ng·h/mL
[3]; human, plasma, population PK method, spine surgery: liposomal bupivacaine 4 mg/kg (6 to <17 y, n = 18) or bupivacaine HCl 2 mg/kg (12 to <17 y, n = 15), read-out: Early Cmax, geometric mean
  Cmax: 444 ng/mL
[3]; human, plasma, population PK method, spine surgery: liposomal bupivacaine 4 mg/kg (6 to <17 y, n = 18) or bupivacaine HCl 2 mg/kg (12 to <17 y, n = 15), read-out: Vss/F, geometric mean
  Vd/F: 153 L
[3]; human, plasma, population PK method, spine surgery: liposomal bupivacaine 4 mg/kg (6 to <17 y, n = 18) or bupivacaine HCl 2 mg/kg (12 to <17 y, n = 15), read-out: t1/2, geometric mean (converted)
  half-life: 6.5 h
[3]; population PK method, spine surgery: liposomal bupivacaine 4 mg/kg (6 to <17 y, n = 18) or bupivacaine HCl 2 mg/kg (12 to <17 y, n = 15)
  CL/F, geometric mean: 16.8 L/h
[3]; population PK model, spine surgery
  Median predicted early Tmax: 0.667 h
